# Data taken from patent US8507545B2, “Cytotoxic T cell activator comprising EP4 agonist” (National University Corporation, Hamamatsu University …, priority 2007, dated 2013).
# Legend:
# [1] = tested on: B16 melanoma cells; assay: Melanoma growth suppressing action; format: in vivo, B6 mouse; conditions: for tumor diameter compared with the experimental group (1): FIG. 1
# Protocol: The corneal layer was removed from the right auricle of each B6 mouse by TS in the same manner as Example 1, and test substances (TRP-2 and Compound A-(1)) were applied there; 2 weeks later, the left auricle was treated in the same manner. The test substances applied to both ears were used in the same combination; TRP-2 was applied at 10 μg for one side of each auricle, and Compound A-(1) was applied at 20 μl, of 100 μM solution for one side of each auricle. Four days after the above-described treatment, each mouse received 2×10^5 B16 melanoma cells (RIKEN's Cell Bank) by subcutaneous transplantation, and examined for tumor growth. Experimental groups were established as in Example 1(1) (5 animals in each group).
# Tumor diameter (mm), as an index of tumor growth, was measured in each group at various days after inoculation of B16 melanoma cells; the results are shown in FIG. 1.
# [2] = tested on: TRP-2-specific CTLs; assay: Activation of cytotoxic T cells in cervical lymph nodes after tape stripping (TRP-2 tetramer flow cytometry); format: in vivo, C57BL/6(B6) mice; conditions: for Ratio of TRP-2-specific CTLs: Example 1(1), cervical lymph nodes one week after application, relative to total mononucleocytes as 100
# Protocol: The corneal layers of the auricles of C57BL/6(B6) mice were destroyed by repeating a stripping procedure using an adhesive tape in 10 cycles, and an antigen peptide or EP4 agonist was applied as a test substance. The antigen peptide used was a melanoma-specific antigen peptide (Accord K.K. Peptide Business Department; hereinafter abbreviated TRP-2) in solution in 70% ethanol; 10 μg was applied to one side of each auricle. The EP4 agonist used was 11α,15α,-dihydroxy-9-oxo-16-(3-methoxymethylphenyl)-17,18,19,20-tetranol-3,7-dithiaprost-13E-enoic acid (hereinafter abbreviated Compound A-(1)) in solution in a mixed solvent of acetone:olive oil=10:1; 20 μL of 100 μM solution was applied to one side of each auricle. One week after application of the test substance, the cervical lymph nodes were removed. The frequency of TRP-2-specific CTLs was determined relative to the total number of mononucleocytes in the cervical lymph nodes as 100 by a flowcytometric analysis (FACScaliber; Becton, Dickinson and Company.) with a tetramer (Medical & Biological Laboratories Co., Ltd.). Four experimental groups were established: (1) a group undergoing tape stripping (hereinafter abbreviated TS) alone, (2) a group undergoing TS followed by application of TRP-2, (3) a group undergoing TS followed by application of Compound A-(1), and (4) a group undergoing TS followed by application of TRP-2 and Compound A-(1).
# Note that the melanoma-specific antigen peptide TRP-2 was synthesized on the basis of a partial sequence described in the aforementioned Non-patent Document 1 (SEQ ID NO. 1) (Accord K.K. Peptide Business Department).
# The same procedures as Example 1(1) were followed except that the EP4 agonists used were 4-[(2-{(2R)-2-[(1E,3S)-4-(4-fluorophenyl)-3-hydroxybut-1-enyl]-5-oxopyrrolidin-1-yl}ethyl)sulfanyl]butanoic acid (hereinafter abbreviated Compound L-(1)) and 4-{[2-((1R,2R,3R)-3-hydroxy-2-{(1E,3S)-3-hydroxy-4-[3-(methoxymethyl)phenyl]but-1-enyl}-5-oxocyclopentyl)ethyl]sulfanyl}butanoic acid (hereinafter abbreviated Compound M-(1)); the action of each compound to activate cytotoxic T cells was evaluated. Four experimental groups were established: (1) a group undergoing TS alone, (2) a group undergoing TS followed by application of TRP-2, (3) a group undergoing TS followed by application of TRP-2 and Compound L-(1), and (4) a group undergoing TS followed by application of TRP-2 and Compound M-(1).
# [3] = tested on: B16 melanoma cells; assay: Life-prolonging effect in melanoma-inoculated mice; format: in vivo, B6 mice; conditions: 10 animals in group
# Protocol: 2×10^5 B16 melanoma cells were transplanted to B6 mice in the same manner as Example 3. On day 5 after transplantation, the right auricle of each B6 mouse was treated with each test substance (TRP-2 (10 μg for one side of each auricle), Compound A-(1) (20 μL of 100 μM solution for one side of each auricle) by the same method as Example 3. Ten days later, the left auricle was treated in the same manner, and the mice in each experimental group were examined for mortality. Three experimental groups were established: (1) a group undergoing TS alone, (2) a group undergoing TS followed by application of Compound A-(1), and (3) a group undergoing TS followed by application of TRP-2 and Compound A-(1) (10 animals in each group).
# [4] = TS followed by application of Compound A-(1) alone, experimental group (3)
# [5] = TS followed by application of TRP-2 and Compound A-(1), experimental group (4)
compound,measurement,setting,value
"COCc1cccc(C[C@H](O)/C=C/[C@H]2[C@H](O)CC(=O)[C@@H]2SCCCSCC(=O)O)c1 [Compound A-(1), 11α,15α,-dihydroxy-9-oxo-16-(3-methoxymethylphenyl)-17,18,19,20-tetranol-3,7-dithiaprost-13E-enoic acid]",tumor growth rates,[1]; [4],decreased
same,tumor diameter compared with the experimental group (1),[1]; [4],smaller
same,tumor growth rates,[1]; [5],decreased
same,take of B16 melanoma cells,"[1]; TS followed by application of TRP-2 and Compound A-(1), experimental group (4), 5 animals",did not take in any animals
same,tumor diameter compared with the experimental group (1),[1]; [5],smaller
same,Ratio of TRP-2-specific CTLs,[2]; TS followed by application of TRP-2 and Compound A-(1),0.63
same,Ratio of TRP-2-specific CTLs,[2]; TS followed by application of the test substance alone,0.55
same,ratio of TRP-2-specific CTLs in cervical lymph nodes compared with the group undergoing TS alone,[2]; TS followed by application of Compound A-(1),increased
same,number of surviving individuals,"[3]; day 16 after B16 melanoma cells inoculation, TS followed by Compound A-(1)",10 animals
same,number of surviving individuals,"[3]; day 16 after B16 melanoma cells inoculation, TS followed by TRP-2 and Compound A-(1)",10 animals
same,number of surviving individuals,"[3]; day 21 after B16 melanoma cells inoculation, TS followed by Compound A-(1)",10 animals
same,number of surviving individuals,"[3]; day 21 after B16 melanoma cells inoculation, TS followed by TRP-2 and Compound A-(1)",10 animals
same,number of surviving individuals,"[3]; day 24 after B16 melanoma cells inoculation, TS followed by Compound A-(1)",10 animals
same,number of surviving individuals,"[3]; day 24 after B16 melanoma cells inoculation, TS followed by TRP-2 and Compound A-(1)",10 animals
same,number of surviving individuals,"[3]; day 27 after B16 melanoma cells inoculation, TS followed by Compound A-(1)",7 animals
same,number of surviving individuals,"[3]; day 27 after B16 melanoma cells inoculation, TS followed by TRP-2 and Compound A-(1)",10 animals
same,number of surviving individuals,"[3]; day 29 after B16 melanoma cells inoculation, TS followed by Compound A-(1)",7 animals
same,number of surviving individuals,"[3]; day 29 after B16 melanoma cells inoculation, TS followed by TRP-2 and Compound A-(1)",10 animals
same,number of surviving individuals,"[3]; day 31 after B16 melanoma cells inoculation, TS followed by Compound A-(1)",7 animals
same,number of surviving individuals,"[3]; day 31 after B16 melanoma cells inoculation, TS followed by TRP-2 and Compound A-(1)",10 animals
same,number of surviving individuals,"[3]; day 33 after B16 melanoma cells inoculation, TS followed by Compound A-(1)",7 animals
same,number of surviving individuals,"[3]; day 33 after B16 melanoma cells inoculation, TS followed by TRP-2 and Compound A-(1)",10 animals
same,number of surviving individuals,"[3]; day 35 after B16 melanoma cells inoculation, TS followed by Compound A-(1)",2 animals
same,number of surviving individuals,"[3]; day 35 after B16 melanoma cells inoculation, TS followed by TRP-2 and Compound A-(1)",10 animals
same,number of surviving individuals,"[3]; day 37 after B16 melanoma cells inoculation, TS followed by Compound A-(1)",2 animals
same,number of surviving individuals,"[3]; day 37 after B16 melanoma cells inoculation, TS followed by TRP-2 and Compound A-(1)",10 animals
same,number of surviving individuals,"[3]; day 38 after B16 melanoma cells inoculation, TS followed by Compound A-(1)",2 animals
same,number of surviving individuals,"[3]; day 38 after B16 melanoma cells inoculation, TS followed by TRP-2 and Compound A-(1)",10 animals
same,number of surviving individuals,"[3]; day 40 after B16 melanoma cells inoculation, TS followed by Compound A-(1)",0 animals
same,number of surviving individuals,"[3]; day 40 after B16 melanoma cells inoculation, TS followed by TRP-2 and Compound A-(1)",8 animals
same,number of surviving individuals,"[3]; day 42 after B16 melanoma cells inoculation, TS followed by Compound A-(1)",0 animals
same,number of surviving individuals,"[3]; day 42 after B16 melanoma cells inoculation, TS followed by TRP-2 and Compound A-(1)",8 animals
same,number of surviving individuals,"[3]; day 44 after B16 melanoma cells inoculation, TS followed by Compound A-(1)",0 animals
same,number of surviving individuals,"[3]; day 44 after B16 melanoma cells inoculation, TS followed by TRP-2 and Compound A-(1)",5 animals
same,number of surviving individuals,"[3]; day 46 after B16 melanoma cells inoculation, TS followed by Compound A-(1)",0 animals
same,number of surviving individuals,"[3]; day 46 after B16 melanoma cells inoculation, TS followed by TRP-2 and Compound A-(1)",4 animals
same,number of surviving individuals,"[3]; day 48 after B16 melanoma cells inoculation, TS followed by Compound A-(1)",0 animals
same,number of surviving individuals,"[3]; day 48 after B16 melanoma cells inoculation, TS followed by TRP-2 and Compound A-(1)",2 animals
same,number of surviving individuals,"[3]; day 50 after B16 melanoma cells inoculation, TS followed by Compound A-(1)",0 animals
same,number of surviving individuals,"[3]; day 50 after B16 melanoma cells inoculation, TS followed by TRP-2 and Compound A-(1)",2 animals
same,number of surviving individuals,"[3]; day 52 after B16 melanoma cells inoculation, TS followed by Compound A-(1)",0 animals
same,number of surviving individuals,"[3]; day 52 after B16 melanoma cells inoculation, TS followed by TRP-2 and Compound A-(1)",2 animals
same,number of surviving individuals,"[3]; day 55 after B16 melanoma cells inoculation, TS followed by Compound A-(1)",0 animals
same,number of surviving individuals,"[3]; day 55 after B16 melanoma cells inoculation, TS followed by TRP-2 and Compound A-(1)",2 animals
same,number of surviving individuals,"[3]; day 57 after B16 melanoma cells inoculation, TS followed by Compound A-(1)",0 animals
same,number of surviving individuals,"[3]; day 57 after B16 melanoma cells inoculation, TS followed by TRP-2 and Compound A-(1)",1 animals
